Measured values reported in patent US10583074B2, “Oral care compositions” (priority 2017, dated 2020).
Values after ≈ are worked out from the molar mass of the structure shown. Read-outs that look alike come from different tables or passages of the source.

Assays:
Experiment in all cases: Minimum inhibitory concentration
Assay type in all cases: cell-based
[1] = tested on: Actinomyces viscosus ATCC 43137
Source text: (§1) That is, the amount in parts-per-million (ppm) required to inhibit the growth of common bacterial pathogens.

[2] = tested on: Lactobacillus casei ATCC 334; conditions: Lacticaseibacillus casei
Source text: as §1

[3] = tested on: Streptococcus oralis ATCC 35037
Source text: as §1

[4] = ATCC43137, Actinomyces viscosus ATCC 43137, solvent ethanol or DMSO per sample, read-out: minimum inhibitory concentration
[5] = ATCC334, Lactobacillus casei ATCC 334, solvent ethanol or DMSO per sample, read-out: minimum inhibitory concentration
[6] = ATCC35037, Streptococcus oralis ATCC 35037, solvent ethanol or DMSO per sample, read-out: minimum inhibitory concentration

Row | MIC [1, 4] | MIC [2, 5] | MIC [3, 6] | Structure (SMILES) | MIC ([1]; Actinomyces viscosus, ATCC43137, read-out: minimum inhibitory concentration) | MIC ([2]; ATCC334, read-out: minimum inhibitory concentration) | MIC ([3]; Streptococcus oralis, ATCC35037, read-out: minimum inhibitory concentration)
1 |  |  |  | Oc1cc(Cl)ccc1Oc1ccc(Cl)cc1Cl [Triclosan] | 3.9 µg/mL (≈ 13.5 µM) | 7.8 µg/mL (≈ 26.9 µM) | 7.8 µg/mL (≈ 26.9 µM)
2 | 250 µg/mL (≈ 1520 µM) | 250 µg/mL (≈ 1520 µM) | 250 µg/mL (≈ 1520 µM) | C=CCc1ccc(O)c(OC)c1 [Eugenol, 4-allyl-2-methoxyphenol] |  |  | 
3 | 15.6 µg/mL (≈ 34.2 µM) | 7.8 µg/mL (≈ 17.1 µM) | 7.8 µg/mL (≈ 17.1 µM) | CC1(C)CC[C@]2(C(=O)O)CC[C@]3(C)C(=CC[C@@H]4[C@@]5(C)CC[C@H](O)C(C)(C)[C@@H]5CC[C@]43C)[C@@H]2C1 [Oleanic Acid, 3β-hydroxy-olea-12-en-28-oic] |  |  | 
